Reference: patent publication US11078157B1, “Compound embodiments that release H2S by reaction with a reactive compound and methods of making and using the same” (University of Oregon, priority 2018, dated 2021)
“Also recorded” adds a separate entry of the source.

Experiments:
[1] = H2S release via methylene blue assay (MBA); type: physicochemical; conditions: for H2S release / rate of H2S release, effect of alkyl functionalization: dithioesters 25 μM, cysteine 500 μM (20 equivalents), relative to compound 506a; for H2S release in the presence of cysteine: 25 μM compound, cysteine 500 μM (20 equiv.); for H2S release on treatment with GSH: 500 μM GSH; for H2S release on treatment with cysteine methyl ester: 500 μM cysteine methyl ester, compared with cysteine; for entropy of activation (ΔS‡), Eyring analysis: varied temperature; for H2S release on treatment with homocysteine: 500 μM homocysteine; for H2S release on treatment with penicillamine: 500 μM penicillamine; for H2S release in the absence of added nucleophiles (hydrolysis): H2O/PBS, physiological pH; for H2S release on co-incubation with cysteine and GSH: cysteine 500 μM + GSH 1 mM, compared with cysteine alone; for second-order rate constant (k2) of cysteine-triggered H2S release: cysteine 250-1250 μM, pseudo-first order conditions, plot of [Cys] vs kobs; for dependence of H2S release on cysteine concentration: increasing cysteine concentrations; for reaction order in cysteine: plot of log[Cys] versus log(kobs)
Procedure: H2S Detection Materials and Methods—Phosphate buffered saline (PBS) tablets (1×, CalBioChem) were used to prepare buffered solutions (140 mM NaCl, 3 mM KCl, 10 mM phosphate, pH 7.4) in deionized water. Buffer solutions were sparged with N2 to remove dissolved oxygen and stored in an N2-filled glovebox. Donor stock solutions (in DMSO) were prepared inside an N2-filled glovebox and stored at −25° C. until immediately before use. Trigger stock solutions (in PBS) were freshly prepared in an N2-filled glovebox immediately before use.
General Procedure for Measuring H2S Release via Methylene Blue Assay (MBA)—Scintillation vials containing 20 mL of PBS were prepared in an N2-filled glovebox. To these solutions, 20 μL of 500 mM analyte stock solution (in PBS) was added for a final concentration of 500 μM. While stirring, the solutions were allowed to thermally equilibrate in heating block at the desired temperature for approximately 20-30 minutes. Immediately prior to donor addition, 0.5 mL solution of the methylene blue cocktail were prepared in disposable 1.5 mL cuvettes. The methylene blue cocktail solution contained: 200 μL of 30 mM FeCl3 in 1.2 M HCl, 200 μL of 20 mM N,N-dimethyl-p-phenylene diamine in 7.2 M HCl, and 100 μL of 1% (w/v) Zn(OAc)2. […] At set time points after the addition of donor, 500 μL reaction aliquots were added to the methylene blue cocktail solutions and incubated for 1 hour at room temperature shielded from light. Absorbance values at 670 nm were measured 1 hour after addition of reaction aliquot. Each experiment was performed in quadruplicate unless stated otherwise.
MBA Calibration Curve—Solutions containing 0.5 mL of the methylene blue cocktail and 0.5 mL PBS containing 500 μM cysteine were freshly prepared in disposable cuvettes (1.5 mL). Under inert conditions, a 10 mM stock solution of NaSH (Strem Chemicals) in PBS was prepared and diluted to 1 mM. Immediately after dilution, 1 mM NaSH was added to 1.0 mL solutions for final concentrations of 10, 20, 30, 40, and 50 μM. Solutions were mixed thoroughly, incubated at room temperature for 1 hour, and shielded from light. Absorbance values at 670 nm were measured after 1 hour.
In this example, the released H2S was measured and quantified using the methylene blue assay for H2S. In a typical use of this assay, aliquots from a reaction mixture with the H2S donor and cysteine are treated with 0.5 mL of a methylene blue assay mixture containing 0.1 mL zinc acetate (1% w/v), 0.2 mL FeCl3 (30 mM in 1.2 M HCl), and 0.2 mL N,N-dimethyl-p-phenylene diamine (20 mM in 7.2 M HCl)). After incubation for 1 hour, the absorbance at 670 nm is measured and converted to a H2S concentration by using the H2S calibration curve. To assess the H2S-releasing efficiency from the compound embodiments, a methylene blue calibration curve was used to quantify the H2S release (FIG. 2).

[2] = thiol; cited from earlier work
[3] = pKa and thiolate fraction of thiol triggers (literature); type: physicochemical; conditions: under physiological conditions
[4] = Reaction product analysis (preparative isolation and HPLC); type: physicochemical; conditions: preparative scale reaction, not further hydrolyzed to N-benzoyl-L-cysteine
Procedure: Compound 604a (0.39 mmol, 1.0 equivalents) was dissolved in 15 mL of 2:1 THF/PBS (10 mM, pH 7.4). L-cysteine methyl ester hydrochloride (1.17 mmol, 3.0 equivalents) was added in a single portion and stirred at room temperature for 2 hours. The reaction mixture was diluted with deionized H2O (˜20 mL) and extracted with CH2Cl2 (3×20 mL). The combined organic extracts were washed with brine and dried over MgSO4. After filtration, the solvent was removed under reduced pressure, and the purified by preparative thin layer chromatography (1:1 CH2Cl2 in hexanes). Compound 604a Rf=0.75 (63.6 mg, 76%) and CysDHT Rf=0.03 (11.0 mg, 13%) were isolated and characterized by ^1H and ^13C{^1H} NMR spectroscopy. The significant recovery of compound 604a is likely due to the lack of buffering capacity in the preparative-scale reaction.
To a 20 mL solution of 10% THF in PBS (10 mM, pH 7.4) containing 2 mM L-cysteine methyl ester (20 equivalents), 20 μL of 100 mM compound 604a in THF was added and stirred at room temperature. After 1 hour, a 1 mL reaction aliquot was analyzed by HPLC. HPLC analysis was performed on an Agilent 1260 HPLC instrument with a Poroshell 120 EC-C18 4.6×100 mm column and monitored at 280 nm. […] The concentration of CysDHT and phenol present at the end of the reaction were determined by measurement against calibration curves for each compound (see FIG. 4). […]

[5] = 25 μM donor, cysteine, after 1 hour

Question: Which “H2S release / rate of H2S release, effect of alkyl functionalization” value (“H2S release / rate of H2S release” for short) [1] does the source give for `CC(C)C(=S)Sc1ccccc1` [compound 506c] here?
Answer: enhanced rates of H2S release

Question: With `O=C(Oc1ccccc1)c1ccccc1` [phenyl benzoate, reference compound] as the compound, how does the “H2S release in the presence of cysteine” value [1] read?
Answer: lack of H2S release; also recorded: Neither of these compounds released H2S

Question: For `O=C(Sc1ccccc1)c1ccccc1` [S-phenyl benzothioate, reference compound], which “H2S release in the presence of cysteine” value [1] is on record?
Answer: lack of H2S release; also recorded: Neither of these compounds released H2S

Question: Which results are given for `S=C(Sc1ccccc1)c1ccccc1` [compound 506a]?
Answer: H2S release on treatment with GSH ([1]; 25 μM donor): a significant H2S release was not observed; H2S release on treatment with cysteine methyl ester ([1]; 25 μM donor): did not affect H2S release; entropy of activation (ΔS‡), Eyring analysis ([1]; 25 μM donor, 500 μM cysteine): −23±1 eu; H2S release on treatment with homocysteine ([1]; 25 μM donor): a reduction in the H2S release rate; H2S release on treatment with penicillamine ([1]; 25 μM donor): significant H2S release was not observed; H2S release in the absence of added nucleophiles (hydrolysis) ([1]; 25 μM donor): H2S release was not observed; H2S release on co-incubation with cysteine and GSH ([1]; 25 μM donor): Minimal change on the cysteine-triggered H2S release; second-order rate constant (k2) of cysteine-triggered H2S release ([1]; 25 μM donor): 1.8 ± 0.1 M⁻¹ s⁻¹; H2S released after 1 hour [1, 5]: approximately 17 μM; H2S releasing efficiency [1, 5]: ~68%; dependence of H2S release on cysteine concentration ([1]; 25 μM donor): Increasing amounts of H2S released with increasing cysteine concentrations; H2S release with cysteine derivatives having masked thiol or amine ([1]; 25 μM donor, thiol or amine moiety of cysteine masked): reduced H2S release; experimentally-observed ΔH‡ ([1]; Eyring analysis, 25 μM donor, 500 μM cysteine): 60.2 kJ/mol; reaction order in cysteine [1]: first order in cysteine

Question: Which “H2S release / rate of H2S release” value [1] does the source give for `S=C(SCc1ccccc1)c1ccccc1` [compound 506d] here?
Answer: minimal H2S release

Question: For `N[C@@H](CCS)C(=O)O` [homocysteine], which pKa [2] is on record?
Answer: ~10

Question: And the “effective concentration of thiolate” value [3]?
Answer: ~0.03%

Question: With `S=C(Oc1ccccc1)c1ccccc1` [compound 604a, O-Phenyl benzothioate] as the compound, how does the “H2S release in the presence of cysteine” value [1] read?
Answer: result in H2S release

Question: What about the “H2S release on treatment with GSH” value ([1]; 25 μM donor) of the same compound?
Answer: does not result in H2S release; also recorded: did not generate H2S

Question: And the “H2S release on treatment with N-acetylcysteine” value ([1]; 25 μM donor, 500 μM N-acetylcysteine)?
Answer: did not, in H2S release

Question: What about the “H2S release on treatment with N-acetylcysteine methyl ester” value ([1]; 25 μM donor, 500 μM N-acetylcysteine methyl ester) of the same compound?
Answer: did not, in H2S release

Question: And the “H2S release on treatment with S-methylcysteine” value ([1]; 25 μM donor, 500 μM S-methylcysteine)?
Answer: did not, in H2S release

Question: And the H2S releasing efficiency ([1]; 25 μM donor, 500 μM cysteine (20 equivalents))?
Answer: 80%

Question: And the “H2S release on treatment with cysteine methyl ester” value ([1]; 25 μM donor)?
Answer: did not affect H2S production

Question: And the “entropy of activation (ΔS‡), Eyring analysis” value ([1]; 25 μM donor, 500 μM cysteine)?
Answer: −38±3 eu

Question: What about the “H2S release on treatment with homocysteine” value ([1]; 25 μM donor) of the same compound?
Answer: result in H2S release; also recorded: resulted in H2S release, although at a slower rate than from treatment with cysteine

Question: What about the “H2S release on treatment with lysine” value ([1]; 25 μM donor, 500 μM lysine) of the same compound?
Answer: did not result in H2S release

Question: And the “H2S release on treatment with penicillamine” value ([1]; 25 μM donor)?
Answer: result in H2S release

Question: What about the “H2S release on treatment with serine” value ([1]; 25 μM donor, 500 μM serine) of the same compound?
Answer: did not result in H2S release

Question: What about the “H2S release in the absence of added nucleophiles (hydrolysis)” value ([1]; 25 μM donor) of the same compound?
Answer: no hydrolysis-mediated H2S release was observed

Question: What about the “H2S release on treatment with porcine liver esterase (PLE)” value ([1]; 25 μM donor, PLE 1.0 U/mL) of the same compound?
Answer: H2S generation was not observed

Question: And the “H2S release on co-incubation with cysteine and GSH” value ([1]; 25 μM donor)?
Answer: results in H2S release, albeit at a slower rate than with Cys alone; also recorded: a reduced rate of H2S release was observed

Question: What about the “Cysteine-triggered H2S release in the presence of lysine” value ([1]; 25 μM donor, cysteine 500 μM + lysine 500 μM) of the same compound?
Answer: no change in H2S releasing-efficiency was observed

Question: And the “second-order rate constant (k2) of cysteine-triggered H2S release” value ([1]; 25 μM donor)?
Answer: 9.1 ± 0.3 M⁻¹ s⁻¹

Question: What about the “dependence of H2S release on cysteine concentration” value ([1]; 25 μM donor) of the same compound?
Answer: dose-dependent release of H2S; also recorded: Increased cysteine concentrations led to increased rates of H2S production

Question: And the H2S released ([1]; 25 μM solution of donor, 500 μM cysteine (20 equivalents))?
Answer: 20 µM

Question: What about the “reaction order in cysteine” value [1] of the same compound?
Answer: first-order dependence in cysteine

Question: Which “H2S release / rate of H2S release” value [1] does the source give for `CC(C)C(=S)SCc1ccccc1` [compound 506f] here?
Answer: relatively slow H2S release

Question: Which “H2S release / rate of H2S release” value [1] does the source give for `CC(=S)Sc1ccccc1` [compound 506b] here?
Answer: enhanced rates of H2S release

Question: What does the source list for `N[C@@H](CS)C(=O)O` [cysteine]?
Answer: pKa [2]: ~8.5; effective concentration of thiolate [3]: ~10%

Question: Which “H2S release / rate of H2S release” value [1] does the source give for `CC(=S)SCc1ccccc1` [compound 506e] here?
Answer: H2S release was observed

Question: Which “stability of dihydrothiazole under aqueous conditions” value [4] does the source give for `COC(=O)C1CSC(c2ccccc2)=N1` (stereo not shown) [CysDHT, Methyl 2-phenyl-4,5-dihydrothiazole-4-carboxylate] here?
Answer: stable under aqueous conditions
